Source: patent publication US20080051429A1, “USE OF 4-AMINO-PIPERIDINES FOR TREATING SLEEP DISORDERS” (priority 2006, published 2008)

Legend:
Assay in all cases: R-SAT broad profiling
Format in all cases: cell-based
5HT1B = 5HT1B (Homo sapiens, UniProt P28222); parameters: expressed in transfected cells; settings: read-out: pEC50/pIC50 (converted)
Method: (§1) The functional receptor assay, Receptor Selection and Amplification Technology (R-SAT), was used (with minor modifications from that previously described U.S. Pat. No. 5,707,798) to screen compounds for efficacy at the 5-HT2A receptor. Briefly, NIH3T3 cells were grown in 96 well tissue culture plates to 70-80% confluence. Cells were transfected for 12-16 hours with plasmid DNAs using superfect (Qiagen Inc.) as per manufacture's protocols. R-SAT's were generally performed with 50 ng/well of receptor and 20 ng/well of Beta-galactosidase plasmid DNA. All receptor and G-protein constructs used were in the pSI mammalian expression vector (Promega Inc) as described in U.S. Pat. No. 5,707,798. The 5HT2A receptor gene was amplified by nested PCR from brain cDNA using the oligodeoxynucleotides based on the published sequence (see Saltzman et. al. Biochem. Biophys. Res. Comm. 181:1469-78 (1991)). Large-scale transfections, cells were transfected for 12-16 hours, then trypsinized and frozen in DMSO. Frozen cells were later thawed, plated at 10,000-40,000 cells per well of a 96 well plate that contained drug. With both methods, cells were then grown in a humidified atmosphere with 5% ambient CO2 for five days. Media was then removed from the plates and marker gene activity was measured by the addition of the beta-galactosidase substrate ONPG (in PBS with 5% NP-40). The resulting colorimetric reaction was measured in a spectrophotometric plate reader (Titertek Inc.)at […]. All data were analyzed using the computer program XLFit (IDBSm). Efficacy is the percent maximal repression compared to repression by a control compound (ritanserin in the case of 5HT2A). pIC50 is the negative of the log(IC50), where IC50 is the calculated concentration in Molar that produces 50% maximal repression.
(§2) The R-SAT assay (described above in example 136) was used to investigate the selectivity of 2-(4-Methoxyphenyl)-N-(4-methylbenzyl)-N-(1-methylpiperidin-4-yl)acetamide hydrochloride.

5HT1D = 5HT1D (Homo sapiens, UniProt P28221); parameters: expressed in transfected cells; settings: read-out: pEC50/pIC50 (converted)
Method: as §1, §2

5HT1E = 5HT1E (Homo sapiens, UniProt P28566); parameters: expressed in transfected cells; settings: read-out: pEC50/pIC50 (converted)
Method: as §1, §2

5HT2B = 5HT2B (Homo sapiens, UniProt P41595); parameters: expressed in transfected cells; settings: read-out: pEC50/pIC50 (converted)
Method: as §1, §2

5HT2C = target: T1, 5HT2C (Homo sapiens, UniProt P28335); parameters: expressed in transfected cells; settings: read-out: pEC50/pIC50 (converted)
T1 sequence (P28335 33-458): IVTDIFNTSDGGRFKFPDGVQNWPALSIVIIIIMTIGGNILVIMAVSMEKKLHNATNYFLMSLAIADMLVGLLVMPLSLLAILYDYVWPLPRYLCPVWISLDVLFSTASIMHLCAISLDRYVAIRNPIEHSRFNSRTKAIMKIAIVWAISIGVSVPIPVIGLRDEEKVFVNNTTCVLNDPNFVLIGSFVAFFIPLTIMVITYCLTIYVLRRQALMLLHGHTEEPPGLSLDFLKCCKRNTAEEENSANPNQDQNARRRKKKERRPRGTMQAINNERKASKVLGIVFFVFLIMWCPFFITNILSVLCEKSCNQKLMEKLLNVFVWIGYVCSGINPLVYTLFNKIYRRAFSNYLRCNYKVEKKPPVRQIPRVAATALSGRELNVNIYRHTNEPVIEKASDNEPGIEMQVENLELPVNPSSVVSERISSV
Method: as §1, §2

5HT6A = target: T2, 5HT6A (Homo sapiens, UniProt P50406); settings: inverse; read-out: pEC50 or pIC50 (converted)
T2 construct: expressed in transfected cells; host or cells: NIH3T3
Method: as §1
(§3) The R-SAT assay (described above in example 289) was used to investigate the selectivity of 4-(4-Fluoro-benzyl)-3-(4-isobutoxy-benzyl)-8-methyl-1-oxa-3,8-diaza-spiro[4.5]decan-2-one.

D1 = target: T3, D1 (Homo sapiens, UniProt P21728); settings: read-out: pEC50 or pIC50 (converted)
T3 construct: expressed in transfected cells; host or cells: NIH3T3
Method: as §1, §3

m5 = target: T4, m5 (Homo sapiens, UniProt P08912); settings: agonist; read-out: pEC50 or pIC50 (converted)
T4 construct: expressed in transfected cells; host or cells: NIH3T3
T4 sequence (P08912 1-532): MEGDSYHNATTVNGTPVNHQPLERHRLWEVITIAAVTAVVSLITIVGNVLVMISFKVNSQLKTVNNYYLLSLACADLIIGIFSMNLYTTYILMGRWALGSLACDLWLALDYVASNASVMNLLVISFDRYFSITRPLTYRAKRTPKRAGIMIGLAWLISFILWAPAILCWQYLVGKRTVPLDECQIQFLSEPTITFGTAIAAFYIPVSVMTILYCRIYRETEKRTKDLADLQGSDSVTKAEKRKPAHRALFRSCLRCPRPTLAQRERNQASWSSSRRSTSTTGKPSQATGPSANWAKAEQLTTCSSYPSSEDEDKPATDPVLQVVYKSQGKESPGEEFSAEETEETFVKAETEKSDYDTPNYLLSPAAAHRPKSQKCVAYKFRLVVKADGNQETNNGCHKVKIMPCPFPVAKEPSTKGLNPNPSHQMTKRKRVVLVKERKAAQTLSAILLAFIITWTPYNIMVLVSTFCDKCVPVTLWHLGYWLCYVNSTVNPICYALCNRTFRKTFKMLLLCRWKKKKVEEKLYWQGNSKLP
Method: as §1, §3

Sequence of 5HT2B (P41595 whole entry, species assumed): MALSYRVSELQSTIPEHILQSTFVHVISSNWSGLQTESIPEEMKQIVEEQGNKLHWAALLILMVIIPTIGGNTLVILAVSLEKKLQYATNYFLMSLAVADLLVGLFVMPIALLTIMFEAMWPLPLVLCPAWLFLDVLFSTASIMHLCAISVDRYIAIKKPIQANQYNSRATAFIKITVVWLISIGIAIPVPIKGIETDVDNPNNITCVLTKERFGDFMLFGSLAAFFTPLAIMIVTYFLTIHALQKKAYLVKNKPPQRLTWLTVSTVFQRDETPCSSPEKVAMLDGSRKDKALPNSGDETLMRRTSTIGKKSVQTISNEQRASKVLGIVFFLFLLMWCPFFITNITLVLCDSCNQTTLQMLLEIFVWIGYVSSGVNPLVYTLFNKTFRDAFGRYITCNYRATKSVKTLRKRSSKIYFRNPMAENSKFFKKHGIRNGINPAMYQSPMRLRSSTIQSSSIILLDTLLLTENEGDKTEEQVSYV
Sequence of 5HT1D (P28221 whole entry, species assumed): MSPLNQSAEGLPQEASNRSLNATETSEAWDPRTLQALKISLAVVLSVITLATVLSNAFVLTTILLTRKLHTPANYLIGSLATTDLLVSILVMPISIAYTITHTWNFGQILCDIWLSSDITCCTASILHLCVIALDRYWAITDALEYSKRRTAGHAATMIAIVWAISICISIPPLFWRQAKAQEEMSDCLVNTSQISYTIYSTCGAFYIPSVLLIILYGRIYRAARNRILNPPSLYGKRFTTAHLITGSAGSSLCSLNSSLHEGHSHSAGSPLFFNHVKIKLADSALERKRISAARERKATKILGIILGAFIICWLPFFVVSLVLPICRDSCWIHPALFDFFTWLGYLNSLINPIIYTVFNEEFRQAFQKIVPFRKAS
Sequence of 5HT1E (P28566 whole entry, species assumed): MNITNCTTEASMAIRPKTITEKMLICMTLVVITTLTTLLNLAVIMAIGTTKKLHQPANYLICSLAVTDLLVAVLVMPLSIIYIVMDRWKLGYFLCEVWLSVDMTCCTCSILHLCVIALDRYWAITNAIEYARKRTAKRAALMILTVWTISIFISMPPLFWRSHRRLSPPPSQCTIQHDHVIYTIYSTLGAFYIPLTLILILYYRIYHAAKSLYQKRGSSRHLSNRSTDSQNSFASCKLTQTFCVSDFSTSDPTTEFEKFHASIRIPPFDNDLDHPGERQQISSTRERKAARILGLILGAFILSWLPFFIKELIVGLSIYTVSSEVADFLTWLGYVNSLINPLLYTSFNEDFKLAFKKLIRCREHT
T3 sequence (P21728 whole entry): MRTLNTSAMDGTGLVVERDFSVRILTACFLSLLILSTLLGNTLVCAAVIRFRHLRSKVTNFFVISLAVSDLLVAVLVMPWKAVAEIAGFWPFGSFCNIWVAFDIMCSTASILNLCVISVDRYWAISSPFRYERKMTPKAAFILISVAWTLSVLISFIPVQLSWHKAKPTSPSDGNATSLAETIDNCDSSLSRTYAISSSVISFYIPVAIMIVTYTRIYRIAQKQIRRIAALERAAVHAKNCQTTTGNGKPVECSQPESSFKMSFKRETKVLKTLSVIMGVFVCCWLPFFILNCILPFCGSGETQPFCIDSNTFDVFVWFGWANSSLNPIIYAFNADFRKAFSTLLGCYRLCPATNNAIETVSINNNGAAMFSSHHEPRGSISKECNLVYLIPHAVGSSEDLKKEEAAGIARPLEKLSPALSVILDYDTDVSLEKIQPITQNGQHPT
Sequence of 5HT1B (P28222 whole entry, species assumed): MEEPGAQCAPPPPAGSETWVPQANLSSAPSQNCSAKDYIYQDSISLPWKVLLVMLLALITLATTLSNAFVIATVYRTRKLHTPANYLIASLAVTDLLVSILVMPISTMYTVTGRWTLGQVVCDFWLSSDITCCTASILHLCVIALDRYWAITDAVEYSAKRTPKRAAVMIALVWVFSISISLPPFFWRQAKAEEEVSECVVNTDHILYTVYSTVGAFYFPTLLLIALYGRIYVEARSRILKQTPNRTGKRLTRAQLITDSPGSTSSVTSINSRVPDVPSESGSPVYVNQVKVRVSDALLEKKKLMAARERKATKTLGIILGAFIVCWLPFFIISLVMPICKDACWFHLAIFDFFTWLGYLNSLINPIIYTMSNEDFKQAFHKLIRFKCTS
T2 sequence (P50406 whole entry): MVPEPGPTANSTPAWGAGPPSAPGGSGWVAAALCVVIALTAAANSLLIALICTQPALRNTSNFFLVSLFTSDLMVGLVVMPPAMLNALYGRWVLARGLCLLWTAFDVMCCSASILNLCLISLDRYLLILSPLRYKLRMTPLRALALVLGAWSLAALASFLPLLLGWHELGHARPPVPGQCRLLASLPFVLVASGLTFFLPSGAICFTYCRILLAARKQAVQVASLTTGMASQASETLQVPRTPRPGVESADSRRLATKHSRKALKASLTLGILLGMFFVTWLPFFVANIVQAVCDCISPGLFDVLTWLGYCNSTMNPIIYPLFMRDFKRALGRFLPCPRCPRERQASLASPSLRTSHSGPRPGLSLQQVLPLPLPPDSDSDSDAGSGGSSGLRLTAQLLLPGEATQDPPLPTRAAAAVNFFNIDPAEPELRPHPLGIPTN

EC50 (5HT1B; agonist) [µM] | IC50 (5HT1B; antagonist) [µM] | EC50 (5HT1D; agonist) [µM] | IC50 (5HT1D; antagonist) [µM] | EC50 (5HT1E; agonist) [µM] | IC50 (5HT1E; antagonist) [µM] | EC50 (5HT2B; agonist) [µM] | IC50 (5HT2B; inverse agonist) [µM] | EC50 (5HT2C; agonist) [µM] | IC50 (5HT2C; inverse agonist) [µM] | SMILES | IC50 (5HT6A) [µM] | EC50 (D1; agonist) [µM] | IC50 (D1; antagonist) [µM] | EC50 (m5) [µM]
> 3.16 | > 3.16 | > 3.16 | > 3.16 | > 3.16 | > 3.16 | > 3.16 | 0.126 | > 3.16 | 0.1 | COc1ccc(CC(=O)N(Cc2ccc(C)cc2)C2CCN(C)CC2)cc1 [Example 50ELH27, 2-(4-Methoxyphenyl)-N-(4-methylbenzyl)-N-(1-methylpiperidin-4-yl)acetamide] |  |  |  | 
 |  |  |  |  |  |  |  |  |  | CC(C)COc1ccc(CN2C(=O)OC3(CCN(C)CC3)C2Cc2ccc(F)cc2)cc1.Cl (racemic) [Example 69NLS75, 4-(4-Fluorobenzyl)-3-(4-isobutoxybenzyl)-8-methyl-1-oxa-3,8-diazaspiro[4.5]decan-2-one, hydrochloride] | > 3.16 | > 3.16 | > 3.16 | > 3.16
